Laboratory results published in PMC9376960, “Ruthenium(II)–Tris-pyrazolylmethane Complexes Inhibit Cancer Cell Growth by Disrupting Mitochondrial Calcium Homeostasis” (Journal of Medicinal Chemistry, 2022).

How the values were obtained:
[1] = Stability and speciation in deuterated cell culture medium (DMEM-d/DMSO-d6, NMR); type: physicochemical; conditions: for Aquo species % in DMEM-d/DMSO-d6 at t0 / Aquo species % in DMEM-d/DMSO-d6 after 24h: DMSO-d6-DMEM-d 1:4 v/v; for Aquo species % in DMEM-d/DMSO-d6 after 24h: 37 °C; for residual complex % in DMEM-d/DMSO-d6: after 24 h at 37 °C
Description: Powdered DMEM cell culture medium (1000 mg/L glucose and L-glutamine, without sodium bicarbonate and phenol red; D2902; Sigma-Aldrich) was dissolved in D2O (10 mg/mL), according to the manufacturer’s instructions. The solution of deuterated cell culture medium (“DMEM-d”) was treated with Me2SO2 (6.6 × 10^–3 M) and NaH2PO4/Na2HPO4 (0.10 M, pD = 7.5)[120]−[122] and then stored at 4 °C under N2. The selected ruthenium compound (2–3 mg) was dissolved in DMSO-d6 (0.14 mL; 0.18 mL for 4) and then diluted with DMEM-d up to 0.75 mL total volume (cRu ca. 4 × 10^–3 M). The mixture was stirred for 30 min, then filtered over celite, and transferred into an NMR tube. The resulting yellow solution was analyzed by ^1H and ^31P NMR (delay time = 3 s; number of scans = 20) and then heated at 37 °C for 24 h. After cooling to room temperature, NMR analyses were repeated. Compound 1 was instead dissolved in a DMSO-d6/DMEM-d 4:1 v/v solution (0.7 mL; [Ru] = approx. 3 × 10^–3 M) containing Me2SO2 as the internal standard.[115] The percentage of the starting complex + related aquo complex was calculated by the relative integral with respect to Me2SO2 (δ/ppm = 3.16 in DMSO-d6/DMEM-d 1:4 and 1:3 v/v; δ/ppm = 2.95 in DMSO-d6/DMEM-d 4:1 v/v).

[2] = tested on: cancer cell lines (MCF-7, HeLa, 518A2, HCT116, RD) vs noncancerous MRC-5pd30; experiment: MTT panel: average IC50 of cancer cell lines and selectivity index; type: cell-based, human; conditions: for SI (selectivity index): IC50 for noncancerous MRC-5pd30 vs the average IC50 value of cancer cell lines; for IC50: average of IC50 values related to cancer cell lines
Description: (§1) In vitro antiproliferative activity of Ru complexes was determined by the MTT or, alternatively, SRB assay as already described,[84] after 72 h of incubation of cells with various concentrations of the Ru complex. The reported IC50 values are an average of three independent experiments, each consisting of three replicates per concentration.

MMC-2 = experiment: MTT assay, NER-deficient cells; type: cell-based, Chinese hamster; conditions: 72 h
Description: The human cervical carcinoma HeLa cells and human colorectal carcinoma cells HCT116 were kindly supplied by Professor B. Keppler, University of Vienna (Austria). Human rhabdomyosarcoma RD cells were purchased from the American Type Culture Collection (ATCC, Manassas, VA). Human breast cancer MCF-7 cells, human skin melanoma 518A2 cells, and human MRC5pd30 cells derived from normal lung tissue were purchased from the European Collection of Authenticated Cell Cultures (ECACC) (Salisbury, U.K.). Chinese hamster ovary CHO-K1 cell line (wild type) and its derivative MMC-2 carrying the ERCC3/XPB mutation (NER-deficient) cell line were kindly supplied by Dr. […], Cancer Research Institute, Slovak Academy of Sciences, Bratislava (Slovakia). In vitro antiproliferative activity of Ru complexes was determined by the MTT or, alternatively, SRB assay as already described,[84] after 72 h of incubation of cells with various concentrations of the Ru complex. The reported IC50 values are an average of three independent experiments, each consisting of three replicates per concentration.

HCT116 = experiment: MTT antiproliferative assay; type: cell-based, human; conditions: 72 h, mean ± SD
Description: (§2) All of the cell lines were cultivated in DMEM medium (high glucose 4.5 g L^–1, PAA, Pasching, Austria) supplemented with gentamycin (50 μg mL^–1, Serva, Heidelberg, Germany) and 10% heat-inactivated fetal bovine serum (PAA). The medium for MRC5pd30 cells was further supplemented by 1% nonessential amino acids (Sigma-Aldrich, Prague, Czech Republic). All cells were cultured as adherent monolayers in a humidified incubator at 37 °C in a 5% CO2 atmosphere and subcultured twice a week with an appropriate plating density.
as §1

MCF-7 = experiment: MTT antiproliferative assay; type: cell-based, human; conditions: 72 h, mean ± SD
Description: as §2, §1

518A2 = experiment: MTT antiproliferative assay; type: cell-based, human; conditions: 72 h, mean ± SD
Description: as §2, §1

HeLa = experiment: MTT antiproliferative assay; type: cell-based, human; conditions: 72 h, mean ± SD
Description: as §2, §1

HCT116 (3D) = experiment: Cytotoxicity in 3D spheroids (colonospheres), Cell Titer-Glo 3D; type: cell-based, human; conditions: for effect on the morphology of 3D spheroids: 20 µM, 72 h, bright-field images; for IC50: Cell Titer-Glo, spheroids, 72 h of treatment
Description: A spontaneous spheroid formation was used to generate colonospheres derived from the HCT116 cell line. The HCT116 cells were seeded on 96-well ultralow attachment plates (1400 cells/well) and cultivated in a tumor sphere-forming medium (DMEM/F12, supplemented with B27 (Invitrogen), BSA, bFGF (10 ng mL^–1), and EGF (20 ng mL^–1)) for 4 days. After the incubation period, colonospheres were treated with Ru complexes for another 3 days. The viability of colonospheres was determined by the Cell Titer-Glo 3D cell viability assay (Promega) according to the manufacturer’s instructions. The reported IC50 values are the average of three independent experiments, each consisting of three replicates per concentration level. Bright-field images of the spheroids were taken as well to determine the effect on the morphology of the spheroids.

HCT116 cells = experiment: Cellular uptake of Ru (ICP-MS); type: cell-based, human; conditions: HCT116, 15 μM, 24 h; mean ± SEM
Description: In these experiments, 1 × 10^6 HCT116 cells were seeded on 100 mm Petri dishes. After overnight preincubation in a drug-free medium, the cells were treated with the Ru complexes (15 μM) for 24 h. Afterward, the cells were extensively washed with PBS (37 °C), detached using 0.25% trypsin, washed twice with ice-cold PBS, and counted by an automatic cell counter. The cell pellets were digested using a microwave acid (HCl) digestion system (CEM Mars). The quantity of Ru taken up by the cells was determined by inductively coupled plasma mass spectrometry (ICP-MS). All experiments were carried out in triplicate.

MRC5pd30 = experiment: MTT assay on noncancerous cells; type: cell-based, human; conditions: 72 h, mean ± SD
Description: as §2, §1

[3] = tested on: mitochondria of HCT116 cells; experiment: Ru content in isolated mitochondria (ICP-MS); type: cell-based, human; conditions: HCT116, 10 μM, 24 h
Description: The HCT116 cells were seeded at a density of 3 × 10^6 cells/10 mL Petri dish and incubated overnight. The cells were treated with Ru complexes (10 μM) for 24 h, harvested, and washed with ice-cold PBS, and mitochondrial fractions were extracted by the Mitochondrial Isolation Kit (MITOISO2, Sigma-Aldrich) according to the manufacturer’s instructions. The Ru content in each sample was evaluated by ICP-MS. The measurement was performed in triplicate.

[4] = DMSO-d6/DMEM-d 1:4 v/v, sum of chloro and aquo complexes

Aquo species % in DMEM-d/DMSO-d6 at t0 [1] [%] | Aquo species % in DMEM-d/DMSO-d6 after 24h [1] [%] | residual complex % in DMEM-d/DMSO-d6 [1, 4] [%] | IC50 (HCT116) [µM] | IC50 (MCF-7) [µM] | IC50 (HeLa) [µM] | Accumulation of ruthenium, ng Ru/10^6 cells (HCT116 cells) [ng Ru/10^6 cells] | Ru in isolated mitochondria [3] [pg Ru/10^6 cells] | residual complex % in DMEM-d/DMSO-d6 ([1]; compound 1: DMSO-d6/DMEM-d 4:1 v/v) [%] | Substance | SI (selectivity index) [2] | IC50 [2] [µM] | IC50 (MMC-2) [µM] | IC50 (518A2) [µM] | effect on the morphology of 3D spheroids (HCT116 (3D)) | IC50 (HCT116 (3D)) [µM] | IC50 (MRC5pd30) [µM] | fold more effective than cisplatin (HCT116 (3D); 3D spheroids HCT116)
0 | 16 | 98 | 8 ± 2 | 10 ± 2 | 15 ± 1 | 59.4 ± 0.6 | 70 ± 15 |  | [RuCl(κ^3-tpm)(PPh3)(CNCy)]Cl [compound 8] | 2.0 | 9.9 ± 1.5 | 16 ± 3 | 10 ± 2 | heterogeneous morphology with several dissociated cell clumps | 12.1 ± 2.7 | 19.7 ± 0.4 | 
0 | 16 | 95 | 6.7 ± 0.4 | 6 ± 1 | 10 ± 2 | 63.3 ± 6.0 | 127 ± 24 |  | [RuCl(κ^3-tpm)(PPh3){P(OMe)3}]Cl [compound 7] | 3.4 | 7.1 ± 1 | 33 ± 2 | 6.8 ± 0.8 | heterogeneous morphology with several dissociated cell clumps | 12.2 ± 2.5 | 24 ± 1 | 
 |  |  | 1.5 ± 0.1 | 2.4 ± 0.6 | 4 ± 0.4 | 145.1 ± 5.9 | 467 ± 66 | 88 | [RuCl(κ^3-tpm)(PPh3)2]Cl [compound 1] | 2.3 | 2.5 ± 0.3 | 7.7 ± 0.2 | 2.6 ± 0.4 | almost completely disintegrated | 2.5 ± 0.6 | 5.8 ± 0.7 | approximately 18 fold
0 | 17 | 97 | 35 ± 6 | 43 ± 7 | 36 ± 2 | 16.2 ± 1.4 |  |  | [RuCl(κ^3-tpm)(PPh3){CNCH2P(O)(OEt2)2}]Cl [compound 9] | 1.5 | 35.2 ± 5 |  | 38 ± 7 |  |  | 50.8 ± 0.4 | 
0 | 66 | 100 | 25 ± 1 | 38 ± 8 | 91 ± 3 | 66.1 ± 8.0 |  |  | [RuCl(κ^3-tpm)(PPh3){NCHN(Me)(CH)2}]Cl [compound 3] | 2.0 | 42.8 ± 4.2 |  | 33 ± 5 |  |  | 83.6 ± 0.5 | 
